Data as given in the supplement of paper PMC10307832.

How the values were obtained:
Assay in all cases: relative viability (nuclei count vs DMSO), 5 days (fraction); higher = more cells survive
[1] = compound: O=C(Nc1cccc(C(F)(F)F)c1)Nc1cc(S(=O)(=O)NC2CC2)ccc1-c1ccsc1 [AGI-6780] + O=C(CCCCCCC(=O)Nc1ccccc1)NO [Vorinostat] (partner 1 µM)
How it was run: (§1)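 Lung cancer cell lines in 1536-well plates got either a single drug or a fixed anchor-drug dose together with five library-drug doses (not always all listed) in √10 steps, by pin tool, on the day after seeding. Nuclei were counted after 5 days, and relative viability is the treated-to-vehicle ratio of nuclei counts. Values are medians of duplicate plates.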

[2] = compound: O=C(Nc1cccc(C(F)(F)F)c1)Nc1cc(S(=O)(=O)NC2CC2)ccc1-c1ccsc1 [AGI-6780] + Cc1cc(Nc2cc(N3CCN(C)CC3)nc(Sc3ccc(NC(=O)C4CC4)cc3)n2)n[nH]1 [Tozasertib] (partner 0.1 µM)
How it was run: as §1

[3] = compound: O=C(Nc1cccc(C(F)(F)F)c1)Nc1cc(S(=O)(=O)NC2CC2)ccc1-c1ccsc1 [AGI-6780] + C[C@@H](Oc1cc(-c2cnn(C3CCNCC3)c2)cnc1N)c1c(Cl)ccc(F)c1Cl [Crizotinib] (partner 1 µM)
How it was run: as §1

[4] = compound: O=C(Nc1cccc(C(F)(F)F)c1)Nc1cc(S(=O)(=O)NC2CC2)ccc1-c1ccsc1 [AGI-6780] + CC1(C)CCC(c2ccc(Cl)cc2)=C(CN2CCN(c3ccc(C(=O)NS(=O)(=O)c4ccc(N[C@H](CCN5CCOCC5)CSc5ccccc5)c(S(=O)(=O)C(F)(F)F)c4)cc3)CC2)C1 [Navitoclax] (partner 0.5 µM)
How it was run: as §1

| Cell Line | relative viability ([1]; first compound 0.08 µM) | relative viability ([1]; first compound 0.253 µM) | relative viability ([1]; first compound 0.8 µM) | relative viability ([1]; first compound 2.53 µM) | relative viability ([1]; first compound 8 µM) | relative viability ([2]; first compound 0.08 µM) | relative viability ([2]; first compound 0.253 µM) | relative viability ([2]; first compound 0.8 µM) | relative viability ([2]; first compound 2.53 µM) | relative viability ([2]; first compound 8 µM) | relative viability ([3]; first compound 0.08 µM) | relative viability ([3]; first compound 0.253 µM) | relative viability ([3]; first compound 0.8 µM) | relative viability ([3]; first compound 2.53 µM) | relative viability ([3]; first compound 8 µM) | relative viability ([4]; first compound 0.08 µM) | relative viability ([4]; first compound 0.253 µM) | relative viability ([4]; first compound 0.8 µM) | relative viability ([4]; first compound 2.53 µM) | relative viability ([4]; first compound 8 µM) |
| --- | --- | --- | --- | --- | --- | --- | --- | --- | --- | --- | --- | --- | --- | --- | --- | --- | --- | --- | --- | --- |
| RERF-LC-KJ | 0.784 | 0.724 | 0.795 | 0.596 | 0.697 | 0.506 | 0.619 | 0.461 | 0.452 | 0.34 | 0.769 | 0.879 | 0.808 | 0.791 | 0.792 | 1.18 | 1.08 | 1.16 | 0.834 | 0.911 |
| NCI-H2342 | 0.749 | 0.824 | 0.874 | 0.663 | 1.1 | 0.56 | 0.52 | 0.593 | 0.43 | 0.597 | – | – | – | – | – | – | – | – | – | – |
| A-427 | – | 0.82 | 0.857 | 0.816 | 0.836 | 0.264 | 0.217 | 0.19 | 0.154 | 0.168 | 1.02 | 0.897 | 1.06 | 0.693 | 0.901 | 0.942 | 0.922 | 1 | 0.81 | 0.942 |
| HARA | 0.431 | 0.575 | 0.499 | 0.528 | 0.616 | 0.0824 | 0.106 | 0.114 | 0.0867 | 0.111 | 1.05 | 1.08 | 0.894 | 1.01 | 1.07 | 1.2 | 1.15 | 1.09 | 1.19 | 1.19 |
| HCC-78 | 0.527 | 0.411 | 0.577 | 0.432 | 0.389 | – | 0.404 | 0.452 | 0.304 | 0.438 | 0.378 | 0.337 | 0.422 | 0.353 | 0.343 | 0.845 | 0.789 | 0.9 | 0.779 | 0.801 |
| NCI-H1755 | 0.751 | 0.813 | 0.646 | 0.605 | 0.8 | 0.664 | 0.627 | 0.517 | 0.436 | 0.557 | 0.878 | 0.818 | 1 | 0.79 | 0.886 | 1.04 | 1.01 | 0.977 | 0.961 | 0.894 |
| NCI-H23 | 0.61 | 0.74 | 0.735 | 0.614 | 0.508 | 0.347 | 0.365 | 0.35 | 0.379 | 0.343 | 0.56 | 0.633 | 0.629 | 0.539 | 0.544 | 0.844 | 0.951 | 0.835 | 0.555 | 0.802 |
| ABC-1 | – | 1.52 | 1.38 | 0.842 | 1.03 | 0.186 | 0.212 | 0.17 | 0.206 | 0.167 | 1.1 | 1.17 | 1.69 | 1.2 | 0.978 | – | – | – | – | – |
| Calu-6 | – | – | – | – | – | – | – | – | – | – | 0.822 | 0.829 | 0.948 | 0.824 | 0.752 | 0.948 | 0.815 | 0.846 | 0.833 | 0.891 |
| NCI-H838 | 0.801 | 0.687 | 0.738 | 0.647 | 0.672 | 0.321 | 0.244 | 0.295 | 0.276 | 0.224 | 0.979 | 0.795 | 0.973 | 0.812 | 0.844 | 1.19 | 1.09 | 1.17 | 1.06 | 1.11 |
| NCI-H2009 | 0.754 | 0.712 | 0.693 | 0.707 | 0.628 | 0.605 | 0.725 | 0.845 | 0.701 | 0.683 | 1.02 | 1.09 | 0.976 | 1.01 | 1.05 | 1.2 | 1.12 | 1.19 | 1.16 | 1.16 |
| NCI-H1563 | – | – | – | – | – | – | – | – | – | – | 0.943 | 0.827 | 0.828 | 0.858 | 0.903 | – | – | – | – | – |
| NCI-H596 | 0.519 | 0.533 | 0.602 | 0.502 | 0.642 | 0.839 | 0.898 | 0.725 | – | 0.983 | 0.928 | 1 | 0.912 | 0.773 | 1.03 | 0.91 | 1.02 | 0.927 | 0.774 | 0.929 |
| 201T | 0.991 | 0.98 | 1.06 | 0.951 | 1.04 | 0.916 | 0.95 | 0.938 | 0.835 | 0.968 | 1.04 | 1.04 | 1.01 | 1.03 | 1.05 | 1.26 | 1.19 | 1.24 | 1.18 | 1.26 |
| NCI-H358 | 1.07 | 0.616 | 0.709 | 0.602 | 0.675 | 0.11 | 0.108 | 0.112 | 0.105 | 0.11 | 0.76 | 0.566 | 0.573 | 0.528 | 0.471 | – | – | – | – | – |
| EBC-1 | – | – | – | – | – | – | – | – | – | – | 0.199 | 0.184 | 0.186 | 0.175 | 0.183 | 0.407 | 0.429 | 0.365 | 0.512 | 0.38 |
| NCI-H650 | 0.465 | 0.466 | 0.393 | 0.389 | 0.465 | 0.749 | 0.747 | 0.72 | 0.642 | 0.7 | 0.833 | 0.673 | 0.737 | 0.601 | 0.641 | – | – | – | – | – |
| A549 | – | – | – | – | – | – | – | – | – | – | 0.763 | 0.765 | 0.855 | 0.625 | 0.836 | 1.31 | 1.27 | 1.37 | 1.13 | 1.23 |
| NCI-H1299 | – | – | – | – | – | – | – | – | – | – | 0.995 | 0.956 | 1.01 | 0.945 | 0.941 | 1.02 | 1.06 | 0.97 | 1.06 | 1.02 |
| NCI-H1395 | 0.714 | 0.726 | 0.826 | 0.618 | 0.701 | 0.778 | 0.774 | 0.893 | 0.666 | 0.674 | – | – | – | – | – | 1.25 | 1.17 | 1.2 | – | 1.23 |
